Source: ChEMBL document CHEMBL1157448, “Antimycotic activity of 4-thioisosteres of flavonoids towards yeast and yeast-like microorganisms” (2008)

Columns and labels:
Type in all cases: functional
Papiliotrema laurentii [1] = assay: Antimycotic activity against Cryptococcus laurentii DBVPG 4272 by agar diffusion disk bioassay
Cryptococcus neoformans [2] = assay: Antimycotic activity against Filobasidiella neoformans DBVPG 6010 by agar diffusion disk bioassay
Saccharomyces cerevisiae [3] = assay: Antimycotic activity against Saccharomyces cerevisiae DBVPG 6500 by agar diffusion disk bioassay
Clavispora lusitaniae = assay: Antimycotic activity against Clavispora lusitaniae DBVPG 6142 by agar diffusion disk bioassay
Papiliotrema laurentii [4] = assay: Antimycotic activity against Cryptococcus laurentii DBVPG 6265 by agar diffusion disk bioassay
Papiliotrema laurentii [5] = assay: Antimycotic activity against Cryptococcus laurentii DBVPG 3883 by agar diffusion disk bioassay
Saccharomyces cerevisiae [6] = assay: Antimycotic activity against Saccharomyces cerevisiae DBVPG 6173 by agar diffusion disk bioassay
Kluyveromyces marxianus = assay: Antimycotic activity against Kluyveromyces marxianus DBVPG 6141 by agar diffusion disk bioassay
Prototheca wickerhamii = assay: Antimycotic activity against Prototheca wickerhamii DBVPG 8879 by agar diffusion disk bioassay
Candida albicans [7] = assay: Antimycotic activity against Candida albicans DBVPG 6157 by agar diffusion disk bioassay
[8] = tested on: Meyerozyma guilliermondii; assay: Antimycotic activity against Pichia guilliermondii DBVPG 6140 by agar diffusion disk bioassay
Candida albicans [9] = assay: Antimycotic activity against Candida albicans DBVPG 6133 by agar diffusion disk bioassay
Pichia kudriavzevii = assay: Antimycotic activity against Issatchenkia orientalis DBVPG 6782 by agar diffusion disk bioassay
Cryptococcus neoformans [10] = assay: Antimycotic activity against Filobasidiella neoformans DBVPG 6225 by agar diffusion disk bioassay
Cryptococcus neoformans [11] = assay: Antimycotic activity against Filobasidiella neoformans DBVPG 3428 by agar diffusion disk bioassay
Yarrowia lipolytica = assay: Antimycotic activity against Yarrowia lipolytica DBVPG 6053 by agar diffusion disk bioassay
[Candida] zeylanoides = Antimycotic activity against Candida zeylanoides DBVPG 6163 by agar diffusion disk bioassay
Candida tropicalis = assay: Antimycotic activity against Candida tropicalis DBVPG 3982 by agar diffusion disk bioassay
Cryptococcus neoformans [12] = assay: Antimycotic activity against Filobasidiella neoformans DBVPG 6981 by agar diffusion disk bioassay
Nakaseomyces glabratus = assay: Antimycotic activity against Candida glabrata DBVPG 7212 by agar diffusion disk bioassay
Cryptococcus neoformans [13] = assay: Antimycotic activity against Filobasidiella neoformans DBVPG 6982 by agar diffusion disk bioassay

| Structure (SMILES) | inhibition zone (IZ) (Papiliotrema laurentii [1]) | inhibition zone (IZ) (Cryptococcus neoformans [2]) | inhibition zone (IZ) (Saccharomyces cerevisiae [3]) | inhibition zone (IZ) (Clavispora lusitaniae) | inhibition zone (IZ) (Papiliotrema laurentii [4]) | inhibition zone (IZ) (Papiliotrema laurentii [5]) | inhibition zone (IZ) (Saccharomyces cerevisiae [6]) | inhibition zone (IZ) (Prototheca wickerhamii) | inhibition zone (IZ) (Candida albicans [7]) | inhibition zone (IZ) (Candida albicans [9]) | inhibition zone (IZ) (Cryptococcus neoformans [10]) | inhibition zone (IZ) (Cryptococcus neoformans [11]) | inhibition zone (IZ) (Yarrowia lipolytica) | inhibition zone (IZ) (Cryptococcus neoformans [12]) | further results |
| --- | --- | --- | --- | --- | --- | --- | --- | --- | --- | --- | --- | --- | --- | --- | --- |
| COc1ccc(C2CSc3cc(O)ccc3O2)cc1 (stereo not given) | 22 mm | 13.6 mm |  |  |  |  |  |  |  |  |  |  |  |  |  |
| COc1cc(OC)c2c(c1)OC(c1ccc(O)c(O)c1)CS2 (stereo not given) | 19.3 mm |  | 14.9 mm | 13.9 mm | 2.6 mm | 13.1 mm | 14.6 mm | 14.5 mm | 12.1 mm |  |  |  |  |  | inhibition zone (IZ) (Kluyveromyces marxianus): 14.9 mm |
| Oc1ccc(C2CSc3ccc(O)cc3O2)cc1 (stereo not given) | 28.5 mm | 15.5 mm | 19.2 mm | 12.4 mm | 17.8 mm | 22.6 mm | 15.6 mm | 17.8 mm | 18.3 mm | 16.2 mm | 17 mm | 17.4 mm | 16.5 mm | 15.6 mm | inhibition zone (IZ) [8]: 17.2 mm; inhibition zone (IZ) (Pichia kudriavzevii): 14 mm; inhibition zone (IZ) ([Candida] zeylanoides): 16.4 mm; inhibition zone (IZ) (Candida tropicalis): 15.5 mm; inhibition zone (IZ) (Nakaseomyces glabratus): 13.1 mm |
| Oc1ccc(C2CSc3cc(O)ccc3O2)cc1 (stereo not given) | 16.4 mm | 15.5 mm |  | 12.9 mm | 16.9 mm | 13.8 mm | 15.2 mm |  |  |  | 11.2 mm |  | 14.3 mm |  |  |
| COc1ccc(C2CSc3ccc(O)cc3O2)cc1 (stereo not given) | 26.4 mm | 18.1 mm | 20.6 mm |  | 16.8 mm |  |  |  | 14.1 mm |  | 14.9 mm | 14.6 mm | 15.6 mm | 14.2 mm | inhibition zone (IZ) (Cryptococcus neoformans [13]): 12.9 mm |
| COc1ccc2c(c1)OC(c1ccc(O)cc1)CS2 (stereo not given) | 30.2 mm | 35.1 mm | 18.3 mm | 15.3 mm | 20.6 mm | 18.2 mm | 24.1 mm | 20.7 mm | 16.5 mm | 17.5 mm | 18.4 mm | 20 mm | 15.8 mm | 25.1 mm | inhibition zone (IZ) (Pichia kudriavzevii): 17.6 mm; inhibition zone (IZ) ([Candida] zeylanoides): 19.4 mm; inhibition zone (IZ) (Candida tropicalis): 20.2 mm |
| COc1ccc(C2CSc3c(O)cc(O)cc3O2)cc1 (stereo not given) | 17.5 mm |  | 14.7 mm |  | 13.3 mm |  | 15.1 mm |  |  | 12.4 mm |  |  |  |  |  |
